Assay results from PubChem BioAssay (NCI).
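Five compound concentrations were applied to cells in 96-well plates for 48 hours; endpoints were derived by simple linear interpolation of the resulting dose-response curve. Abbreviation: GI50, concentration required for 50% inhibition of growth. TGI marks complete inhibition of growth.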

How the values were obtained:
Assay in all cases: NCI tumour cell line growth inhibition, 48 h
NCI-H23 lung = system: NCI-H23 lung
SNB-19 CNS = system: SNB-19 CNS
M14 melanoma = system: M14 melanoma
SR leukemia = system: SR leukemia
OVCAR-8 ovarian = system: OVCAR-8 ovarian
CAKI-1 renal = system: CAKI-1 renal
IGROV1 ovarian = system: IGROV1 ovarian
786-0 renal = system: 786-0 renal
DU-145 prostate = system: DU-145 prostate
SK-OV-3 ovarian = system: SK-OV-3 ovarian
SF-295 CNS = system: SF-295 CNS
MDA-MB-231 breast = system: MDA-MB-231 breast
KM12 colon = system: KM12 colon
HCT-116 colon = system: HCT-116 colon
UACC-62 melanoma = system: UACC-62 melanoma
HS 578T breast = system: HS 578T breast
K-562 leukemia = system: K-562 leukemia
LOX IMVI melanoma = system: LOX IMVI melanoma
SN12C renal = system: SN12C renal
CCRF-CEM leukemia = system: CCRF-CEM leukemia
SK-MEL-2 melanoma = system: SK-MEL-2 melanoma
HCC-2998 colon = system: HCC-2998 colon
SNB-75 CNS = system: SNB-75 CNS
HCT-15 colon = system: HCT-15 colon
HT29 colon = system: HT29 colon
HL-60(TB) leukemia = system: HL-60(TB) leukemia
OVCAR-4 ovarian = system: OVCAR-4 ovarian
NCI/ADR-RES ovarian = system: NCI/ADR-RES ovarian
TK-10 renal = system: TK-10 renal

## NS(=O)(=O)c1ccc(N=Nc2c(O)[nH]c3ccc(C(=O)NCCCn4ccnc4)cc23)cc1
NCI-H23 lung
  GI50: > 25 µM
  TGI: > 25 µM
SNB-19 CNS
  GI50: > 25 µM
  TGI: > 25 µM
M14 melanoma
  GI50: > 25 µM
  TGI: > 25 µM
SR leukemia
  GI50: > 25 µM
  TGI: > 25 µM
OVCAR-8 ovarian
  GI50: > 25 µM
  TGI: > 25 µM
CAKI-1 renal
  GI50: > 25 µM
  TGI: > 25 µM
IGROV1 ovarian
  GI50: > 25 µM
  TGI: > 25 µM
786-0 renal
  GI50: > 25 µM
  TGI: > 25 µM
DU-145 prostate
  GI50: > 25 µM
  TGI: > 25 µM
SK-OV-3 ovarian
  GI50: > 25 µM
  TGI: > 25 µM
SF-295 CNS
  GI50: > 25 µM
  TGI: > 25 µM
MDA-MB-231 breast
  GI50: > 25 µM
  TGI: > 25 µM
KM12 colon
  GI50: > 25 µM
  TGI: > 25 µM
HCT-116 colon
  GI50: > 25 µM
  TGI: > 25 µM
UACC-62 melanoma
  GI50: > 25 µM
  TGI: > 25 µM
HS 578T breast
  GI50: > 25 µM
  TGI: > 25 µM
K-562 leukemia
  GI50: > 25 µM
  TGI: > 25 µM
LOX IMVI melanoma
  GI50: > 25 µM
  TGI: > 25 µM
SN12C renal
  GI50: > 25 µM
  TGI: > 25 µM
CCRF-CEM leukemia
  GI50: > 18.5 µM
  TGI: > 25 µM
SK-MEL-2 melanoma
  GI50: > 25 µM
  TGI: > 25 µM
HCC-2998 colon
  GI50: > 25 µM
  TGI: > 25 µM
SNB-75 CNS
  GI50: > 25 µM
  TGI: > 25 µM
HCT-15 colon
  GI50: > 25 µM
  TGI: > 25 µM
HT29 colon
  GI50: > 25 µM
  TGI: > 25 µM
HL-60(TB) leukemia
  GI50: > 25 µM
  TGI: > 25 µM
OVCAR-4 ovarian
  GI50: > 25 µM
  TGI: > 25 µM
NCI/ADR-RES ovarian
  GI50: > 25 µM
  TGI: > 25 µM
TK-10 renal
  GI50: > 25 µM
  TGI: > 25 µM
